Test results: PMC12655682, “Screening-Identified Oxazole-4-Carboxamide KB-2777 Exhibits In Vitro Anti-Coronavirus Activity” (Pharmaceutics, 2025)
Read-outs that look alike come from different tables or passages of the source.

Legend:
[1] = Cytotoxicity (EZ-Cytox WST) in LLC-MK2 cells; assay type: cell-based; settings: rhesus monkey, 72 h exposure
Experimental: Cells were seeded at 2 × 10^4 cells per well in 96-well plates and, after overnight attachment, exposed to test compounds for 72 h in maintenance medium. The final DMSO concentration was ≤0.1% (v/v) for all conditions, including vehicle controls. Cell viability was quantified using EZ-Cytox WST reagent (DoGenBio, Seoul, Republic of Korea) according to the manufacturer’s instructions; absorbance was read at 450 nm on a SpectraMax i3x microplate reader (Molecular Devices, San Jose, CA, USA). Viability for each well was normalized to the mean of vehicle-treated (mock) controls on the same plate and expressed as percent viability. Each condition included technical replicates (n = 3) per experiment. Concentration–response data from ≥3 independent experiments were fit to a four-parameter logistic (4PL) model in GraphPad Prism 10.1.2 (GraphPad Software, San Diego, CA, USA) (log10-transformed concentrations; bottom and top unconstrained).

HCoV-NL63 [2] = assay: Primary antiviral screening (virus inhibition) in HCoV-NL63-infected LLC-MK2 cells; assay type: cell-based, Human coronavirus NL63; settings: for SI (=CC50/EC50): HCoV-NL63/LLC-MK2; for antiviral effect: HCoV-NL63/LLC-MK2, up to 25 µM
Experimental: For antiviral activity, cells in 96-well plates were infected and treated with test compounds as indicated and incubated for 48–72 h. Cell viability was quantified by WST (EZ-Cytox) at 450 nm on the same reader. Cytoprotective effect was calculated by normalizing to infected DMSO controls and converting to percent protection: % Protection = ((V_drug + virus − V_virus-only)/(V_mock − V_virus-only)) × 100.
We screened 11 oxazole-4-carboxamide derivatives (Figure 1) against HCoV-NL63 in LLC-MK2 cells and quantified antiviral activity and cytotoxicity (Figure 2). Several derivatives inhibited NL63 with distinct selectivity profiles. […] Visible crystals or precipitates formed at ≥50 µM without loss of viability or morphological change; therefore, downstream assays were performed at ≤25 µM.

HCoV-NL63 [3] = assay: Combination (concentration matrix, ZIP synergy) HCoV-NL63/LLC-MK2; assay type: cell-based, Human coronavirus NL63; settings: HCoV-NL63/LLC-MK2, alone
Experimental: Concentration matrices were generated within the non-cytotoxic range for KB-2777 + nirmatrelvir (HCoV-NL63/LLC-MK2) and KB-2777 + GS-441524 (HCoV-OC43/Vero E6). Antiviral activity was measured at 48 h post-infection. Interaction surfaces and ZIP synergy scores were computed using SynergyFinder (v3) with default normalization (virus + DMSO control = 0% inhibition). Heatmaps and δ-surfaces were exported directly from SynergyFinder.

[4] = Human coronavirus NL63, LLC-MK2, HCoV-NL63/LLC-MK2, primary screen, read-out: EC50
[5] = HCoV-NL63/LLC-MK2, primary screen, read-out: EC50
[6] = Human coronavirus NL63, LLC-MK2, HCoV-NL63/LLC-MK2, primary screen

SMILES	CC50 at 72 h [1] [µM]	SI (=CC50/EC50) (HCoV-NL63 [2])	EC50 (HCoV-NL63 [2]; [4]) [µM]	EC50 (HCoV-NL63 [2]; [5]) [µM]	EC50 (HCoV-NL63 [2]; [6]) [µM]	antiviral effect (HCoV-NL63 [2])	antiviral activity of the single agent in the combination assay (HCoV-NL63 [3])
COC(=O)[C@H](C)NC(=O)c1nc(-c2ccc(C(F)(F)F)cc2)oc1-c1ccc(SC)cc1 [KB-2738]	21.8	2.84	7.7				
COC(=O)[C@H](C)NC(=O)c1nc(-c2ccc(C(F)(F)F)cc2)oc1-c1cccc(SC)c1 [KB-2742]	< 25	<5.40	4.63				
COC(=O)[C@H](C)NC(=O)c1nc(-c2ccc(C(F)(F)F)cc2)oc1-c1cccc(OC)c1 [KB-2767]	30.8	3.33	9.26				
COC(=O)[C@H](CC(C)C)NC(=O)c1nc(-c2ccc(C(F)(F)F)cc2)oc1-c1cccc(SC)c1 [KB-2768]	34.1	5.12	6.66				
CSc1cccc(-c2oc(-c3ccc(C(F)(F)F)cc3)nc2C(=O)N[C@@H](C)C(N)=O)c1 [KB-2769]	< 6.25	<2.67	2.34				
CSc1cccc(-c2oc(-c3ccc(C(F)(F)F)cc3)nc2C(=O)N[C@@H](CC(C)C)C(N)=O)c1 [KB-2771]	< 25			4.27	4 to 5		
COC(=O)C(CC1CCNC1=O)NC(=O)c1nc(-c2ccc(C(F)(F)F)cc2)oc1-c1cccc(SC)c1 (stereo not shown) [KB-2772]	> 50					no detectable antiviral effect	
COC(=O)C(CC1CCNC1=O)NC(=O)c1nc(-c2ccc(C(F)(F)F)cc2)oc1-c1cccc(OC)c1 (stereo not shown) [KB-2773]	< 25					no detectable antiviral effect	
COC(=O)[C@H](CC(C)C)NC(=O)c1nc(-c2ccc(C(F)(F)F)cc2)oc1-c1cccc(OC)c1 [KB-2774]	25.2			4.39	4 to 5		
COc1cccc(-c2oc(-c3ccc(C(F)(F)F)cc3)nc2C(=O)N[C@@H](C)C(N)=O)c1 [KB-2775]	3.12					no detectable antiviral effect	
CC(C)(C)[C@H](NC(=O)C(F)(F)F)C(=O)N1C[C@H]2[C@@H]([C@H]1C(=O)N[C@H](C#N)C[C@@H]1CCNC1=O)C2(C)C [nirmatrelvir]							limited activity
